In patent US20100280098A1, “RECEPTOR TARGETED OLIGONUCLEOTIDES” (priority 2007, published 2010):
“Also recorded” adds a separate entry of the source.

Experiments:
A375SM-Luc705-B cells [1] = test: Luciferase splice-correction assay with peptide-oligonucleotide conjugates; type: cell-based; conditions: for luciferase expression: dose-response and mismatch control studies, luciferase after 48 h
Method: Cell Lines and Plasmids: A375SM melanoma cells were obtained from Dr. J. Bear (University of North Carolina, Chapel Hill, N.C., United States of America), and were cultured in Dulbecco's minimum essential medium (DMEM; Invitrogen, Carlsbad, Calif., United States of America) supplemented with L-glutamine and 10% fetal bovine serum (FBS). Plasmid pLuc/705, containing an aberrant intron inserted into the firefly luciferase coding sequence, was obtained from Dr. R. Kole (University of North Carolina, Chapel Hill, N.C., United States of America). See Kang et al. (1998) Biochemistry, 37, 6235-6239. Stable transfectants were obtained by cotransfecting A375SM cells with one part of hygromycin resistant plasmid pcDNA3.1(+)/hygro (Invitrogen, Carlsbad, Calif., United States of America) and ten parts of pLuc/705 using LIPOFECTAMINE™ 2000 (Invitrogen, Carlsbad, Calif., United States of America) as per manufacturer's instructions. Selection was carried out in DMEM containing 200 μg/mL hygromycin and 10% FBS. The resulting pool of hygromycin resistant cells was referred to as A375SM-Luc705-B.
Oligonucleotide treatment and luciferase assay: A375SM-Luc705-B cells were plated on 12 well plates (at 1.0 or 1.5×10^5 cells per well in various experiments) in DMEM supplemented with 10% FBS. The following day, medium was changed to reduced serum OPTI-MEM I (Invitrogen, Carlsbad, Calif., United States of America). […] Four hours after treatment, 1% FBS was added to each well. Twenty four hours after oligonucleotide treatment, medium was replaced with DMEM containing 1% FBS, and at various times thereafter cell lysates were collected for luciferase assay.
Cells were usually harvested 48 hours after oligonucleotide treatment, or at times indicated in the figures, and activity determined using a Luciferase assay kit (Promega, Madison, Wis., United States of America). Measurements were performed on a Monolight 2010 instrument (Analytical Luminescence Laboratory, San Diego, Calif., United States of America).

A375SM-Luc705-B cells [2] = test: Luciferase splice-correction assay with albumin conjugates; type: cell-based
Method: Oligonucleotide Treatment of Cells and Luciferase Assay: A375SM-Luc705-B cells were seeded onto 12 well plates at 1×10^5 cells per well in medium containing 10% FBS. […] After 4 h of treatment, FBS was added to each well to 1%. After 24 h, cells were washed with DMEM medium containing 10% FBS and incubated in DMEM supplemented with 1% FBS for 48 h prior to harvest.

A375SM-Luc705-B cells [3] = test: Total cellular uptake of Tamra-labeled oligonucleotides (microfluorimeter); type: cell-based; conditions: for cell viability: 1-10 mM β-cyclodextrin, 0.2-20 μM cytochalasin D; for effect on uptake of the RGD-oligonucleotide conjugate: inhibitor 15 min before 100 nM RGD-623-Tamra, uptake after 4 h
Description: (§1) Cell Uptake, Confocal Fluorescence Microscopy, and Flow Cytometry: Total cellular uptake of Tamra-labeled oligonucleotides was monitored using a Nanodrop microfluorimeter (Nanodrop Technologies, Wilmington, Del., United States of America). After treatment with oligonucleotides the cells were lysed in a mild non-ionic detergent buffer and the Tamra fluorescence (emission 583 nm) was quantitated based on a linear standard curve of unconjugated Tamra in buffer. Intracellular distribution of Tamra-labeled oligonucleotides was examined using an Olympus Confocal FV300 fluorescent microscope (Olympus America Inc., Center Valley, Pa., United States of America) with 60X-oil immersion objective, as previously described. See Astriab-Fisher et al. (2004) Biochem. Pharmacol., 68, 403-407. Expression levels of αvβ3 were monitored by immunostaining with an anti-human-αvβ3 monoclonal (Chemicon, Temecula, Calif., United States of America) followed by an Alexa 488 rabbit antimouse secondary antibody, with analysis by flow cytometry using a DakoCytomation (Glostrop, Denmark) machine.

A375SM-Luc705-B cells [4] = test: Subcellular distribution and co-localization by confocal fluorescence microscopy (peptide conjugate); type: cell-based; conditions: for co-localization with dextran / co-localization with transferrin: 2 h; for co-localization with dextran / co-localization with transferrin / co-localization with transferrin or dextran markers: live cells, 100 nM; for co-localization with transferrin or dextran markers: 24 h
Description: as §1

A375SM-Luc705-B cells [5] = test: Total cellular accumulation of albumin conjugates (fluorimeter); type: cell-based; conditions: nontoxic concentrations, 30 min prior to 100 nM conjugate, 4 h
Method: Cellular Uptake and Confocal Microscopy: Cells were seeded onto either 12 well plates at 1×10^5 cells per well for cellular uptake measurements or in 12 well glass-bottom plates at 2×10^4 cells per well for live cell analysis by confocal microscopy. […], the cells were either lysed for measurement of Tamra fluorescence using a Nanodrop microfluorimeter (Nanodrop Technologies, Wilmington, Deleware, United States of America) or washed with DMEM containing 10% FBS and then placed in DMEM without phenol red, supplemented with 1% FBS, for confocal microscopy analysis. Co-localization of Tamra-labeled oligonucleotides with Alexa 488 labeled Transferrin or Dextran (Molecular Probes, Beaverton, Oreg., United States of America) in live cell was also examined by confocal microscopy. An Olympus confocal microscope with a 60× objective lens was used, and the data were processed using Fluoview software (Olympus, Center Valley, Pa., United States of America) as described in Example 1.

[6] = system: αvβ3-positive M21+ human melanoma cells; test: Total cellular uptake in αvβ3-positive cells; type: cell-based; conditions: 12.5-100 nM
Description: (§2) Results represent means and standard errors of triplicate determinations and are expressed as RFUs per microgram cell protein.
as §1

[7] = system: αvβ3-negative M21− human melanoma cells; test: Total cellular uptake in αvβ3-negative cells; type: cell-based; conditions: 12.5-100 nM
Description: as §2, §1

αvβ3 = test: Cell surface αvβ3 level by immunostaining and flow cytometry; type: cell-based, human; conditions: 200 nM, 24 h exposure
Method: Then, αvβ3 levels were determined by immunostaining with anti-αvβ3 antibody. […] The y axis of each panel indicates the number of cells, while the x axis indicates the log of fluorescence intensity.
as §1

A375SM-Luc705-B cells [8] = test: Short-term toxicity, viable cell count after 48 h (peptide conjugate); type: cell-based
Method: Toxicity Studies: Cells were treated with various concentrations of oligonucleotides or conjugates under the same conditions as used for the luciferase induction experiments. After 48 h in medium plus 1% FBS, cells were trypsinized and viable cells were counted in an electronic particle counter.

[9] = Re-dissolution of lyophilized conjugate in sterile water; type: physicochemical; conditions: after dialysis and lyophilization
Description: The peptide conjugation reaction occurred between the maleimide of the bicyclic RGD peptide and the 5′ thiol (—SH) of the oligonucleotide (2). The reaction proceeded efficiently and more than 95% of the starting oligonucleotide (2) was converted into conjugates with bicyclic RGD. The conjugates were purified by ion-exchange chromatography (Resource™ Q column, GE Healthcare, Chalfont St. Giles, United Kingdom) under highly denaturing conditions to avoid any sort of precipitation, although this was not expected to be a problem for this type of peptide. […] Similar approaches were used for the preparation of other oligonucleotides and conjugates. In each case the structure of the final product was confirmed by MALDI-TOF mass spectroscopy.

[10] = listed as RGD-623-Tamra conjugate

5′-GTAATTATTTATAATCGTCC-Tamra-3′ [5MM623-Tamra]
luciferase expression (A375SM-Luc705-B cells [1]): failed to produce an increase in luciferase expression

5′-GTTATTCTTTAGAATGGTGC-3′ (antisense GTTATTCTTTAGAATGGTGC; all 2'-O-methyl, all phosphorothioate, T or U not given here; further chemistry not fully specified) [compound 623]
influence of the Tamra fluorophore on the action of 623 (A375SM-Luc705-B cells [1]; RGD conjugate or lipofection, concentrations up to 75 nM): did not affect the action of 623 | influence of the Tamra fluorophore on the action of 623 (A375SM-Luc705-B cells [1]; concentrations above 100 nM): slight augmentation of effect by Tamra | luciferase activity (A375SM-Luc705-B cells [2]; 25-200 nM, 72 h): did not cause a significant increase in luciferase activity

CC(C)[C@@H]1NC(=O)[C@@H](Cc2ccccc2)NC(=O)[C@H](CC(=O)O)NC(=O)CNC(=O)[C@H](CCCN=C(N)N)NC1=O [RGDfV]
inhibition of the effect of RGD-623-Tamra on luciferase expression (A375SM-Luc705-B cells [1]; 0.1-100 μM peptide 30 min prior to 200 nM conjugate, 48 h): progressive inhibition | effect of co-incubation on the increased uptake of the RGD-conjugate (A375SM-Luc705-B cells [3]; excess peptide): could be blocked | effect of co-incubation on cell associated fluorescence of RGD-623-Tamra conjugate (A375SM-Luc705-B cells [4]; data not shown): substantially reduced total cell associated fluorescence | toxicity of the blocking peptide (A375SM-Luc705-B cells [2]; at the concentrations used): does not cause cell detachment or other obvious toxicity | effect on the ability of the RPA-623 conjugate to activate luciferase (A375SM-Luc705-B cells [2]; excess peptide (0.1-10 μM) 30 min prior to 100 nM conjugate, 48 h): completely blocks | effect on cellular accumulation of RPA-623-Tamra (A375SM-Luc705-B cells [5]): inhibited

C=C1[C@@H](C)[C@H]2[C@H](Cc3ccccc3)NC(=O)[C@]23[C@H](OC(C)=O)/C=C/[C@@](C)(O)C(=O)[C@@H](C)C/C=C/[C@H]3[C@@H]1O [cytochalasin D]
cell viability (A375SM-Luc705-B cells [3]): No loss of cell viability was detected | cell morphology (A375SM-Luc705-B cells [3]; highest concentration): caused some cell rounding | effect on uptake of the RGD-oligonucleotide conjugate (A375SM-Luc705-B cells [3]): block the uptake | effect on cellular accumulation of RPA-623-Tamra (A375SM-Luc705-B cells [5]): inhibited

OC[C@H]1O[C@@H]2O[C@H]3[C@H](O)[C@@H](O)[C@@H](O[C@H]4[C@H](O)[C@@H](O)[C@@H](O[C@H]5[C@H](O)[C@@H](O)[C@@H](O[C@H]6[C@H](O)[C@@H](O)[C@@H](O[C@H]7[C@H](O)[C@@H](O)[C@@H](O[C@H]8[C@H](O)[C@@H](O)[C@@H](O[C@H]1[C@H](O)[C@H]2O)O[C@@H]8CO)O[C@@H]7CO)O[C@@H]6CO)O[C@@H]5CO)O[C@@H]4CO)O[C@@H]3CO [β-cyclodextrin]
cell viability (A375SM-Luc705-B cells [3]): No loss of cell viability was detected | effect on uptake of the RGD-oligonucleotide conjugate (A375SM-Luc705-B cells [3]): block the uptake | effect on cellular accumulation of RPA-623-Tamra (A375SM-Luc705-B cells [5]): inhibited

Bivalent-RGD-Mal-S—(CH2)6-5MM623-Tamra
luciferase expression (A375SM-Luc705-B cells [1]): failed to produce an increase in luciferase expression

BivalentRGD-Mal-S—(CH2)6-623-Tamra [RGD-623-Tamra]
concentration dependence of the luciferase effect (A375SM-Luc705-B cells [1]): rises rapidly between zero and 100 nM and then begins to plateau | time of maximum effect on luciferase expression (A375SM-Luc705-B cells [1]; 200 nM, 48 h after removal of the oligonucleotide): 72 h | time course of the effect on luciferase expression (A375SM-Luc705-B cells [1]; 24-120 h, conjugate 200 nM, complex 100 nM): rose gradually with time | concentration at which substantial effects on luciferase were observed (A375SM-Luc705-B cells [1]; 48 h): 50 nM | low concentration at which significant effects were still observed (A375SM-Luc705-B cells [1]; 48 h): 5 nM | luciferase expression (A375SM-Luc705-B cells [1]): produced a significant increase in luciferase expression | effect on luciferase relative to 623/cationic lipid complex (A375SM-Luc705-B cells [1]; higher concentrations of RGD-623, complex at 100 nM oligonucleotide): approximately 50% | total cellular uptake compared to unconjugated oligonucleotide (A375SM-Luc705-B cells [3]; 12.5, 50 or 100 nM, 4 h): ~2 fold | uptake by M21+ cells as compared to M21− cells [6]: about 3 times | uptake in M21− cells as compared to 623-Tamra control [7]: slightly greater uptake | level of surface αvβ3 expression (αvβ3): no effect | level of surface αvβ3 expression (αvβ3; listed as RGD-623 conjugate): lack of down-regulation of αvβ3 | co-localization with dextran (A375SM-Luc705-B cells [4]): Substantial overlap | co-localization with transferrin (A375SM-Luc705-B cells [4]): no overlap | co-localization with dextran (A375SM-Luc705-B cells [4]; [10]): significant co-localization | co-localization with transferrin (A375SM-Luc705-B cells [4]; [10]): no co-localization | co-localization with transferrin or dextran markers (A375SM-Luc705-B cells [4]): Substantial overlap | co-localization with transferrin or dextran markers (A375SM-Luc705-B cells [4]; [10]): substantial co-localization | co-localization with caveolin-1 (A375SM-Luc705-B cells [4]; between 2 and 6 h, fixed permeabilized cells, 50 nM): significant co-localization | co-localization with αvβ3 (A375SM-Luc705-B cells [4]; early (6 h), fixed cells, 50 nM): Early co-localization | co-localization with other markers (EAA1, LAMP1, clathrin) (A375SM-Luc705-B cells [4]; fixed cells): No significant co-localization | co-localization with trans-Golgi marker TG230 (A375SM-Luc705-B cells [4]; late (24 h), fixed cells, 50 nM): some co-loacalization | cellular uptake seen by confocal microscopy (A375SM-Luc705-B cells [4]; living cells, 200 nM, complex 100 nM): substantial cellular uptake was observed | nuclear fluorescence (A375SM-Luc705-B cells [4]; living cells, 200 nM, complex 100 nM, listed as RGD-623-Tamra conjugate): no readily observable nuclear fluorescence; also recorded: generally free of fluorescence | tolerability by cells (A375SM-Luc705-B cells [8]; concentration range needed for splice correction): well-tolerated by cells | short-term toxicity (viable cells) (A375SM-Luc705-B cells [8]; concentrations up to 1000 nM, 48 h): little effect | cell loss (A375SM-Luc705-B cells [8]; higher concentrations): did not result in significant cell loss | cell rounding (A375SM-Luc705-B cells [8]; higher concentrations): Some cell rounding was observed | re-dissolution in sterile water [9]: re-dissolved in sterile water without any difficulty
